Measurements: article PMC3933419, “Synthesis and Properties of a Selective Inhibitor of Homeodomain–Interacting Protein Kinase 2 (HIPK2)” (PLoS ONE, 2014)
Several values for one entry are separate records, joined by “and”; a condition that tells them apart may be missing. Identical values can stand only once.

Tests used:
HIPK2 [1] = biological target: T1, HIPK2 (Homo sapiens, UniProt Q9H2X6); experiment: HIPK2 kinase inhibition assay (33P-ATP, peptide […]); format: biochemical; conditions: 20 µM ATP; in vitro
T1 construct: The source of HIPK2 and of all of the other protein kinases used for specificity assays is as described elsewhere
Experimental: The source of HIPK2 and of all of the other protein kinases used for specificity assays is as described elsewhere. […] The reaction was stopped by addition of 5 μl of 0.5 M orthophosphoric acid before spotting aliquots onto phosphocellulose filters. Filters were washed in 75 mM phosphoric acid (5-10 ml/each) four times and then once in methanol and dried before counting.

CK1 = CK1 phosphorylation assay; format: biochemical, rat; conditions: 20 µM ATP
Experimental: Native CK2 and CK1 were purified from rat liver.
PIM1, CK2, CK1 phosphorylation assays were performed following similar procedures used for HIPK2 except that preincubation was omitted. In detail, PIM1 activity was determined at 100 µM ATP concentration and in the presence of 30 µM synthetic peptide substrate […]. CK2 and CK1 activities were assayed in a buffer containing 50 mM Tris/HCl (pH 7.5), 100 mM NaCl, 12 mM MgCl2, 100 µM specific peptide substrate […] (for CK2), or 200 µM […] (for CK1) and 20 µM [γ-^33P]ATP (500–1000 c.p.m./pmol).

HIPK2 [2] = biological target: T1, HIPK2; experiment: Kinetic analysis of HIPK2 inhibition (Lineweaver-Burk); format: biochemical
Experimental: Initial velocities were determined at each of the ATP concentration tested, at 1 mM […] peptide concentration. Km values were calculated either in the absence or in the presence of increasing concentrations of inhibitor, from Lineweaver-Burk double-reciprocal plots of the data. Inhibition constants were then calculated by linear regression analysis of Km/Vmax versus inhibitor concentration plots.

[3] = tested on: panel of 76 protein kinases; experiment: Selectivity parameters (Lorenz curve, Gini coefficient, hit rate) of TBID; format: biochemical
Experimental: (§1) Conditions for the activity assays of all other protein kinases tested in selectivity experiments are as described or referenced in [9].
Lorenz curves were derived from the selectivity data. Gini coefficients and hit rates (expressing the percent of kinases inhibited >50% by a given compound) were calculated as described in [25].

endogenous HIPK2 = biological target: T2, endogenous HIPK2 (Homo sapiens, UniProt Q9H2X6); experiment: Activity of HIPK2 immunoprecipitated from treated HepG2 cells; format: cell-based
T2 construct: endogenous in cells; host or cells: HepG2
Experimental: (§2) HepG2 cells (human hepatocellular carcinoma) were cultured in Dulbecco's modified Eagle's medium (DMEM; Sigma) supplemented with 10% fetal calf serum, 2 mM L-glutamine, 100 unit/ml penicillin and 100 µg/ml streptomycin; CEM cells (human T lymphoblastoid cells) were cultured n RPMI-1640 (Sigma) with the same supplements. Cells were cultured in an atmosphere containing 5% CO2, at 37°C. Treatments with TBID were performed in the same medium but with 1% fetal calf serum; control cells were treated with the solvent (DMSO). Total cell lysates were prepared as in [29].
Alternatively, HIPK2 was immunoprecipitated with 2.5 µl anti-HIPK2 (Epitomics) from 350 µg of total lysate proteins deriving from HepG2 cells either treated or not with TBID following a protocol elsewhere described. An aspecific antibody was used as negative control. Immunoprecipitated HIPK2 activity was measured towards the specific peptide substrate ([…]) at 1.6 mM concentration, for 10 min at 30°C, under the same conditions described above for the in vitro kinase assay. Peptide radioactivity was measured after sample spotting on phospho-cellulose paper, washing and scintillation counting, as in [30], while the amount of HIPK2 immunoprecipitated was evaluated by WB.

Ser46 of p53 = experiment: Phosphorylation of p53 Ser46 in treated CEM cells (WB); format: cell-based, human; conditions: 6 h treatment
Experimental: Treatments with TBID were performed in the same medium but with 1% fetal calf serum; control cells were treated with the solvent (DMSO). Total cell lysates were prepared as in [29].
Endogenous HIPK2 activity was evaluated by measuring the phosphorylation level of its target site Ser46 of p53: to this purpose, CEM cells were treated for 6 h as indicated, then lysed. […] Bands were quantified by Carestream Molecular Imaging Software (Kodak) and the obtained values were normalized to total p53 signal with a Cell Signaling Technology antibody; anti-actin (Sigma) was used as loading control.

HepG2 or CEM cells = experiment: Cell viability (MTT) and PARP cleavage; format: cell-based, human; conditions: 6 h, PARP (Figure 6C)
Experimental: as §2
Cell viability was evaluated by means of MTT (3-(4,5-dimethylthiazol-2-yl)-[…] bromide) reagent; 10^5 cells/100 µl were incubated in a 96-well plate and treated for 6 h as indicated. 1 h before the end of the incubation, 10 µl of MTT solution (5 mg/ml in PBS) was added to each well. Incubations were stopped by addition of 20 µl of lysis solution at pH 4.7, as described elsewhere. Plates were read for OD at λ 590 nm, in a Titertek Multiskan Plus plate reader (Flow Laboratories). Apoptosis was evaluated looking for the cleavage of the caspase substrate PARP with anti-PARP antibody (Roche), recognizing both the full length (116 kDa) and the cleaved fragment (85 kDa) of PARP.

ASK1 = ASK1 (Homo sapiens, UniProt Q99683); experiment: Kinase panel selectivity profiling; format: biochemical; conditions: TBID 1 μM, 125 kinase panel, read-out: % activity of the enzyme
Text: (§3) The source of HIPK2 and of all of the other protein kinases used for specificity assays is as described elsewhere.
as §1

EPH-B1 = EPH-B1 (Homo sapiens, UniProt P54762); experiment: Kinase panel selectivity profiling; format: biochemical; conditions: TBID 1 μM, 125 kinase panel, read-out: % activity of the enzyme
Text: as §3, §1

HIPK2 [4] = biological target: T1, HIPK2; experiment: Kinase panel selectivity profiling; format: biochemical
Text: as §3, §1

MKK6 = MKK6 (Homo sapiens, UniProt P52564); experiment: Kinase panel selectivity profiling; format: biochemical; conditions: TBID 1 μM, 125 kinase panel, read-out: % activity of the enzyme
Text: as §3, §1

MNK2 = MNK2 (Homo sapiens, UniProt Q9HBH9); experiment: Kinase panel selectivity profiling; format: biochemical; conditions: TBID 1 μM, 125 kinase panel, read-out: % activity of the enzyme
Text: as §3, §1

PKCa = PKCa (Homo sapiens, UniProt P17252); experiment: Kinase panel selectivity profiling; format: biochemical; conditions: TBID 1 μM, 125 kinase panel, read-out: % activity of the enzyme
Text: as §3, §1

T1 sequence (Q9H2X6 whole entry): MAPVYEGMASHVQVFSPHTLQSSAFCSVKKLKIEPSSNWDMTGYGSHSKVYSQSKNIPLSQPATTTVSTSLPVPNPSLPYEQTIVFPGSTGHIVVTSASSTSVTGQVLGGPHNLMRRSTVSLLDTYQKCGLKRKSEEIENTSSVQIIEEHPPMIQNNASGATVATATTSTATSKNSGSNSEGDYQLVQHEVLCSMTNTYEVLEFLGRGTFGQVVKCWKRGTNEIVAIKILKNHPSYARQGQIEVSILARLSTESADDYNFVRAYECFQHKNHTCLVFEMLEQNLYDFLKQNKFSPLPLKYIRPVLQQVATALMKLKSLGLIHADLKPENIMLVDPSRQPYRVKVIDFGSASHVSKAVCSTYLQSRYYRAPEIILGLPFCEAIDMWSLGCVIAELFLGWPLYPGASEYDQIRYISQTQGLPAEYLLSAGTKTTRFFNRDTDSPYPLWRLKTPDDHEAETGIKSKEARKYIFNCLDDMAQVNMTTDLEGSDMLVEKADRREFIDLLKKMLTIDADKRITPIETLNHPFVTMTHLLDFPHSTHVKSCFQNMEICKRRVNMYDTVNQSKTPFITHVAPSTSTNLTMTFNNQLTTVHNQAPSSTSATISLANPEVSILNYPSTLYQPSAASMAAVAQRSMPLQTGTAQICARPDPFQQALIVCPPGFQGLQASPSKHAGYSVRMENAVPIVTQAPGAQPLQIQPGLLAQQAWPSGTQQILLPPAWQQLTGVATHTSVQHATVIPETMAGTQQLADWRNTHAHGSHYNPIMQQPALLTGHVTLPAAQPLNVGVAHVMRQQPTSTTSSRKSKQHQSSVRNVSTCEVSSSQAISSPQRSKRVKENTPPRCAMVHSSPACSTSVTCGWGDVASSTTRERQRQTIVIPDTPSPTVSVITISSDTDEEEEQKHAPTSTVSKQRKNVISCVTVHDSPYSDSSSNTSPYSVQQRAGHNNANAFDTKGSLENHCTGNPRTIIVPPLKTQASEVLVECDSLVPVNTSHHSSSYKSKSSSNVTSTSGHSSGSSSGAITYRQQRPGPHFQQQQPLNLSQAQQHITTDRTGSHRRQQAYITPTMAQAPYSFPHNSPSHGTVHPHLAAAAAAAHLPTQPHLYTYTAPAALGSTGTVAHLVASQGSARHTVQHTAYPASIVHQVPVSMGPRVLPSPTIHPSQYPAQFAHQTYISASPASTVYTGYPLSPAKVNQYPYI
T2 sequence (Q9H2X6 whole entry): as above
MNK2, sequence (Q9HBH9 whole entry): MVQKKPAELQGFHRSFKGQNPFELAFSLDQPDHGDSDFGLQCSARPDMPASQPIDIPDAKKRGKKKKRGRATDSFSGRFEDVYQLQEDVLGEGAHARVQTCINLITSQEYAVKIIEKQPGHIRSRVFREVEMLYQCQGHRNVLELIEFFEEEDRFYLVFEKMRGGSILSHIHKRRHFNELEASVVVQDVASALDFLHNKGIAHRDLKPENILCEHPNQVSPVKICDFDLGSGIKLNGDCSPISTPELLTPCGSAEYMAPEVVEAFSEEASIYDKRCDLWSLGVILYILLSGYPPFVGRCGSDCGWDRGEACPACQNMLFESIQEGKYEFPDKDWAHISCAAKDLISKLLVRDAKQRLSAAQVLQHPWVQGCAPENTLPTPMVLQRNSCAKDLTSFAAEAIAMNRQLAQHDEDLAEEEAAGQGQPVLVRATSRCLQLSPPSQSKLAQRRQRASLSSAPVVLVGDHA
ASK1, sequence (Q99683 whole entry): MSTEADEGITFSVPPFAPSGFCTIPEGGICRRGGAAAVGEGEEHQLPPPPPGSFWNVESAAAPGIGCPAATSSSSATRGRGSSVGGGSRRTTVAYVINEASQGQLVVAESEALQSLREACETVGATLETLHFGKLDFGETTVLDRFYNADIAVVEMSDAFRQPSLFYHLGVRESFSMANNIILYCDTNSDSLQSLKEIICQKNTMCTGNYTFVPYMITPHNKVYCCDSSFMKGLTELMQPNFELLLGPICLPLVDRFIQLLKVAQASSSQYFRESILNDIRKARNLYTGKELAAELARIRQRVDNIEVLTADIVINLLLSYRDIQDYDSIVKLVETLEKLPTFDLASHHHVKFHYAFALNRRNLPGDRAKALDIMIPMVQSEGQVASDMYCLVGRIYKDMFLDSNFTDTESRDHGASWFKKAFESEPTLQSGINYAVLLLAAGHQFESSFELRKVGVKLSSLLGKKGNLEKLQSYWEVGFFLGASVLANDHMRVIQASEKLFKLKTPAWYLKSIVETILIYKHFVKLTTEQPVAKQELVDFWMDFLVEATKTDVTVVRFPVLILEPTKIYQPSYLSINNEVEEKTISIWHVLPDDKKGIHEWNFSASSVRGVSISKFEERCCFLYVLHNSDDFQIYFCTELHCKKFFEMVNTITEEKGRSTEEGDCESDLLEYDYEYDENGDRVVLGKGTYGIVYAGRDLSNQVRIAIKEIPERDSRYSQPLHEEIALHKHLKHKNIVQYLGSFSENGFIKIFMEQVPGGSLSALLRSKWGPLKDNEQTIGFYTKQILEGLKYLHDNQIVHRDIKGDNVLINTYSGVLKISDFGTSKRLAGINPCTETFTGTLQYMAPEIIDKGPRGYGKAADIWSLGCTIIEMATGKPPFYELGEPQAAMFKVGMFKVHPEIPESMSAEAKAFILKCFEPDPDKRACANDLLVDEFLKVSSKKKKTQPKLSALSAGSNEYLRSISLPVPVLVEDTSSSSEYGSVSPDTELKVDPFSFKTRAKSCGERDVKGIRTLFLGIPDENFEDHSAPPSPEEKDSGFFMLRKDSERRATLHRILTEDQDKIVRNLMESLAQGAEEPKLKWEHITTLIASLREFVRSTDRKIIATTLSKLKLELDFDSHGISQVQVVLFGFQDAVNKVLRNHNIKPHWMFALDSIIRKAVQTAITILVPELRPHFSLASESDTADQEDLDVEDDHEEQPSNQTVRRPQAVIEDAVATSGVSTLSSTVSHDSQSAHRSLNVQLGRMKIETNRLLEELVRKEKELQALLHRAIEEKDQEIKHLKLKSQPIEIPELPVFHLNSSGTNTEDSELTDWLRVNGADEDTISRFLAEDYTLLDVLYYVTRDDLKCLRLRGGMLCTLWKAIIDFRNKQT
EPH-B1, sequence (P54762 18-984): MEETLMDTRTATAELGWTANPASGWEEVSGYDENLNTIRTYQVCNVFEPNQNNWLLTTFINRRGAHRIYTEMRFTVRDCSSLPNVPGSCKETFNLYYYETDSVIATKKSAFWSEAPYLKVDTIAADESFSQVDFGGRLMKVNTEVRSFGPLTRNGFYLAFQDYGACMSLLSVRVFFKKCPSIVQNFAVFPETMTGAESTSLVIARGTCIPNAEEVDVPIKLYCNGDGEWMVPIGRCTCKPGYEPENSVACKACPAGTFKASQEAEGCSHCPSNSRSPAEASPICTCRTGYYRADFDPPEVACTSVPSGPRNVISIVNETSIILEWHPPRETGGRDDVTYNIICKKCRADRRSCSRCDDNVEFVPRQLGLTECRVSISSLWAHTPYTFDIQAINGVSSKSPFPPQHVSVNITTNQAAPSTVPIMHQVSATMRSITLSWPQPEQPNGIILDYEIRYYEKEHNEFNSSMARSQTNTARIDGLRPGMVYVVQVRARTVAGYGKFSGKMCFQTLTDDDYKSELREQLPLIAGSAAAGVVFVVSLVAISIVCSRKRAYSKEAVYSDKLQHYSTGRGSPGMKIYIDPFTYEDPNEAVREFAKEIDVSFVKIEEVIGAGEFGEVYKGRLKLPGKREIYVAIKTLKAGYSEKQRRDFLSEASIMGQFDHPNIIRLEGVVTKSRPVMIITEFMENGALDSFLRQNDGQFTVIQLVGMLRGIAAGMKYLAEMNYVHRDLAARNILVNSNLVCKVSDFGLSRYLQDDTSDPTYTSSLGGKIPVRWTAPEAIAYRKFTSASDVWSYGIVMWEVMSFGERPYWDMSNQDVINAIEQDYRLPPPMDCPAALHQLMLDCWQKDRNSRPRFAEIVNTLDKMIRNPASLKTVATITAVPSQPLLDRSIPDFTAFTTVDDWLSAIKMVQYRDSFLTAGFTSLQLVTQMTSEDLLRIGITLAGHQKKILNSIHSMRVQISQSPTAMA
MKK6, sequence (P52564 whole entry): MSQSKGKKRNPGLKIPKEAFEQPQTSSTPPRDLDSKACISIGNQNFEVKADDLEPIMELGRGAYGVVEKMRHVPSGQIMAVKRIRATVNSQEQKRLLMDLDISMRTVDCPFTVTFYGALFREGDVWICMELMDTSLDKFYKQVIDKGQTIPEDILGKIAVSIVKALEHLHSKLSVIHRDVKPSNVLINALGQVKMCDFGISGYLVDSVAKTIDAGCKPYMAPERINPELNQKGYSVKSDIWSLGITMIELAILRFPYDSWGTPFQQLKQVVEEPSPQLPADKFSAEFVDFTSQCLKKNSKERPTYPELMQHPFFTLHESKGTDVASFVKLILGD

## O=C1c2c(Br)c(Br)c(Br)c(Br)c2C(=O)N1c1ncc[nH]1 [TBID, 4,5,6,7-Tetrabromo-2-(1H-imidazol-2-yl)isoindoline-1,3-dione]
HIPK2 [1]
  IC50: 0.33 µM
CK1
  IC50: > 40 µM
HIPK2 [2]
  Ki: 0.2 µM
HIPK2 [2]; with respect to ATP
  mode of inhibition of HIPK2: competitive with respect to ATP
[3]; 10 µM TBID
  number of kinases inhibited >90%: 1
[3]; 10 µM, 76 PKs
  Gini coefficient: 0.592
[3]; 10 µM, 76 PKs, kinases inhibited >50%
  Hit rate: 0.10
Endogenous HIPK2; HIPK2 activity in cells treated with TBID, read-out: IC50 in cells (concentration required for half maximal inhibition)
  IC50: ~50 µM and 50 µM
Endogenous HIPK2; HepG2 cells, increasing concentrations, immunoprecipitated HIPK2
  endogenous HIPK2 activity upon cell treatment: reduced in a dose dependent manner
Ser46 of p53
  phosphorylation level of p53 Ser46: markedly reduces
HepG2 or CEM cells
  cell toxicity: devoid of cell toxicity
ASK1
  activity at 1 µM: 126%
EPH-B1
  activity at 1 µM: 96%
HIPK2 [4]; 10 µM TBID, panel of 76 protein kinases
  residual activity: entirely suppressed
HIPK2 [4]; TBID 1 μM, 125 kinase panel, read-out: % activity of the enzyme
  activity at 1 µM: 31%
MKK6
  activity at 1 µM: 90%
MNK2
  activity at 1 µM: 113%
PKCa
  activity at 1 µM: 102%
